Assays:
[1] = test system: Bone marrow mast cells (BMMCs); assay: IgE-induced LAT phosphorylation in bone marrow mast cells; type: cell-based, mice; details: Mus musculus, BMMC; BMMCs from female BALB/C mice, sensitized with SPE-7, stimulated with DNP-BSA; upper bound is 'less than'; read-out: IC50, IgE-induced LAT phosphorylation
RBL-2H3 cells = assay: IgE-induced Beta-hexosaminidase secretion in RBL-2H3 cells; type: cell-based; details: Rattus norvegicus, RBL-2H3, RBL-2H3 cells sensitized with SPE-7, stimulated with DNP-BSA; upper bound of each range is 'less than'; read-out: IC50, IgE-induced Beta-hexosaminidase secretion
Syk kinase = Syk kinase (Homo sapiens, UniProt P43405); assay: Syk kinase enzymatic assay (Kit-Tyr 2 Peptide); type: biochemical; details: 8 concentrations, 1 μM down to 0.0003 μM; upper bound of each range is 'less than'; read-out: IC50: Enzymatic Activity (Syk kinase)

Row | IC50 (Syk kinase) | Compound | IC50 [1] | IC50 (RBL-2H3 cells)
1 | 1 to 100 nM | c1cnc2c(NC[C@H]3CCCNC3)nc(-c3ccc(N4CCCC4)cc3)cc2n1 [Compound 70] | 100 to 1000 nM | 1 to 100 nM
2 | 1 to 100 nM | Nc1ccc(-c2cc3nccnc3c(NC[C@H]3CCCNC3)n2)cc1Cl [Compound 81] | 100 to 1000 nM | 100 to 1000 nM
3 | 1 to 100 nM | Cc1cc(-c2cc3nccnc3c(NC[C@H]3CCCNC3)n2)ccc1N1CCOCC1 [Compound 94] | 100 to 1000 nM | 100 to 1000 nM
4 | 1 to 100 nM | c1cnc2c(NC[C@@H]3CNCCO3)nc(-c3ccc(N4CCOCC4)nc3)cc2n1 [Compound 99] | 100 to 1000 nM | 1 to 100 nM
5 | 1 to 100 nM | CN(C)c1ccc(-c2cc3nccnc3c(NC[C@@H]3CNCCO3)n2)cc1 [Compound 107] | 100 to 1000 nM | 1 to 100 nM
6 | 1 to 100 nM | Cc1cc(-c2cc3nccnc3c(NC[C@@H]3CNCCO3)n2)ccc1N1CCOCC1 [Compound 116] | 100 to 1000 nM | 1 to 100 nM
7 | 1 to 100 nM | CNc1ccc(-c2cc3nccnc3c(NC[C@@H]3CNCCO3)n2)cc1F [Compound 137] | 100 to 1000 nM | 1 to 100 nM
8 | 1 to 100 nM | FC1CNCC(CNc2nc(-c3ccc(N4CCOCC4)cc3)cc3nccnc23)C1 (stereo not shown) [Compound 156] | 100 to 1000 nM | 1 to 100 nM
9 | 100 to 1000 nM | C[C@H](O)CNc1nc(-c2ccc(N3CCOCC3)cc2)cc2nccnc12 [Compound 161] | 100 to 1000 nM | 100 to 1000 nM
10 | 100 to 1000 nM | OC[C@H]1CCN(c2nc(-c3ccc(N4CCOCC4)cc3)cc3nccnc23)C1 [Compound 163, (S)-(1-(7-(4-morpholinophenyl)pyrido[4,3-b]pyrazin-5-yl)pyrrolidin-3-yl)methanol] | 100 to 1000 nM | 1 to 100 nM
11 | 100 to 1000 nM | NC(=O)CCNc1nc(-c2ccc(N3CCOCC3)cc2)cc2nccnc12 [Compound 188] | 100 to 1000 nM | 1 to 100 nM

Continued, compound first:

Row | Compound | IC50 (Syk kinase) | IC50 [1] | IC50 (RBL-2H3 cells)
12 | COc1ccc(-c2cc3nccnc3c(NCC3CCCNC3)n2)cc1 (stereo not shown) [Compound 10] | 1 to 100 nM | 100 to 1000 nM | 100 to 1000 nM
13 | CN(C)c1ccc(-c2cc3nccnc3c(NCC3CCCNC3)n2)cc1 (stereo not shown) [Compound 12] | 1 to 100 nM | 100 to 1000 nM | 1 to 100 nM
14 | COc1ccc(-c2cc3nccnc3c(NC[C@H]3CCCNC3)n2)cc1F [Compound 35] | 1 to 100 nM | 100 to 1000 nM | 1 to 100 nM
15 | CNc1ccc(-c2cc3nccnc3c(NCC3CCCNC3)n2)cc1 (stereo not shown) [Compound 44] | 1 to 100 nM | 100 to 1000 nM | 1 to 100 nM
16 | c1cnc2c(N3CCC4(CCNC4)C3)nc(-c3ccc(N4CCOCC4)cc3)cc2n1 (stereo not shown) [Compound 71] | 1 to 100 nM | 100 to 1000 nM | 100 to 1000 nM
17 | CNc1ccc(-c2cc3nccnc3c(NC[C@H]3CCCNC3)n2)cc1 [Compound 82] | 1 to 100 nM | 100 to 1000 nM | 1 to 100 nM
18 | COc1ccc(-c2cc3nccnc3c(NC[C@H]3CCCNC3)n2)cc1Cl [Compound 93] | 1 to 100 nM | 100 to 1000 nM | 1 to 100 nM
19 | c1cnc2c(N3CCC4(CCCNC4)C3)nc(-c3ccc(N4CCOCC4)cc3)cc2n1 (stereo not shown) [Compound 105] | 1 to 100 nM | 100 to 1000 nM | 1 to 100 nM
20 | CNc1ccc(-c2cc3nccnc3c(NC[C@H]3CCCNC3)n2)cc1F [Compound 140] | 1 to 100 nM | 100 to 1000 nM | 1 to 100 nM
21 | OC[C@@H]1CCN(c2nc(-c3ccc(N4CCOCC4)cc3)cc3nccnc23)C1 [Compound 159, (R)-(1-(7-(4-morpholinophenyl)pyrido[4,3-b]pyrazin-5-yl)pyrrolidin-3-yl)methanol] | 100 to 1000 nM | 100 to 1000 nM | 1 to 100 nM
22 | c1cnc2c(NC3CC3)nc(-c3ccc(N4CCOCC4)cc3)cc2n1 [Compound 181] |  | 100 to 1000 nM | 100 to 1000 nM
23 | c1cc(CNc2nc(-c3ccc(N4CCOCC4)cc3)cc3nccnc23)ccn1 [Compound 184] |  | 100 to 1000 nM | 100 to 1000 nM
24 | CN(C)c1ccc(-c2cc3nccnc3c(NCCCN)n2)cc1 [Compound 185] | 1 to 100 nM | 100 to 1000 nM | 100 to 1000 nM
